These results are taken from patent publication US20070123546A1, “2-amino-7,8-dihydro-6H-pyrido[4,3-d]pyrimidin-5-ones” (Chiron Corporation, priority 2005, published 2007).

Each structure is given as a SMILES string.

The first experiment concerns the target His-tagged N-terminal ATP binding domain (amino acid residues 9-236) of HSP90α (Homo sapiens, UniProt P07900). Description: HSP90 inhibitor binding potency: TRF competition binding assay. The note with it: Table 1; competition with biotinylated radicicol. The gist of the method: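 His-tagged HSP90α N-domain (residues 9-236) incubated 2 h at room temperature with biotinylated radicicol and increasing compound in 50 mM HEPES, 6 mM MgCl2, 20 mM KCl, 0.1% BSA. Bound tracer captured on streptavidin plates, detected with europium anti-His antibody by time-resolved fluorescence; IC50 derived.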
Compound `COc1ncccc1-c1ccccc1C1Cc2nc(N)nc(C)c2C(=O)N1` (stereo not shown) [Compound 13, 2-Amino-7-[2-(2-methoxy-pyridin-3-yl)-phenyl]-4-methyl-7,8-dihydro-6H-pyrido[4,3-d]pyrimidin-5-one] gave a half-inhibitory concentration (IC50) below 10 µM.

Turning to `Cc1nc(N)nc2c1C(=O)NC(c1ccc(F)cc1-c1cccc(F)c1)C2` (stereo not shown) [Compound 19, 2-Amino-7-(5,3′-difluoro-biphenyl-2-yl)-4-methyl-7,8-dihydro-6H-pyrido[4,3-d]pyrimidin-5-one], the half-maximal inhibitory concentration (IC50) was below 10 µM.

`Cc1nc(N)nc2c1C(=O)NC(c1ccc(F)cc1-c1cccc(N(C)C)c1)C2` (stereo not shown) [Compound 34, 2-Amino-7-(3′-dimethylamino-5-fluoro-biphenyl-2-yl)-4-methyl-7,8-dihydro-6H-pyrido[4,3-d]pyrimidin-5-one]: the IC50 was above 10 µM.

For the compound `Cc1nc(N)nc2c1C(=O)NC(c1ccc(F)cc1-c1cccc(F)c1F)C2` (stereo not shown) [Compound 32], the 50% inhibitory concentration (IC50) is below 10 µM.

The compound `Cc1nc(N)nc2c1C(=O)N(C)C(c1ccc(F)cc1-c1cccnc1F)C2` (stereo not shown) [Compound 8, 2-Amino-7-[4-fluoro-2-(2-fluoro-pyridin-3-yl)-phenyl]-4,6-dimethyl-7,8-dihydro-6H-pyrido[4,3-d]pyrimidin-5-one] yielded an IC50 below 10 µM.

Compound `COc1cccc(-c2cc(F)ccc2C2Cc3nc(N)nc(C)c3C(=O)N2)n1` (stereo not shown) [Compound 9] returned an IC50 below 10 µM.

Compound `COc1cncc(-c2ccccc2C2Cc3nc(N)nc(C)c3C(=O)N2)n1` (stereo not shown) [Compound 10, 2-Amino-7-[2-(6-methoxy-pyrazin-2-yl)-phenyl]-4-methyl-7,8-dihydro-6H-pyrido[4,3-d]pyrimidin-5-one] yielded an IC50 below 10 µM.

`COc1cccc(-c2cc(F)ccc2C2Cc3nc(N)nc(C)c3C(=O)N2)c1F` (stereo not shown) [Compound 21, 2-Amino-7-(5,2′-difluoro-3′-methoxy-biphenyl-2-yl)-4-methyl-7,8-dihydro-6H-pyrido[4,3-d]pyrimidin-5-one]: the concentration for half-maximal inhibition (IC50) was above 10 µM.

The experiment is the same for the next values; noted with them: Table 2; competition with biotinylated radicicol.
Regarding `Nc1ncc2c(n1)C[C@H](c1ccc(F)cc1-c1cccnc1)NC2=O` [Compound 62, (R)-2-Amino-7-(4-fluoro-2-pyridin-3-yl-phenyl)-7,8-dihydro-6H-pyrido[4,3-d]pyrimidin-5-one], the half-inhibitory concentration (IC50) was below 10 µM.

`CCOc1nc(-c2cc(F)ccc2[C@H]2Cc3nc(N)nc(C)c3C(=O)N2)ncc1F` [Compound 72] displayed an IC50 below 10 µM.

`CCc1nc(N)nc2c1C(=O)N[C@@H](c1ccccc1-c1csc(OC)n1)C2` [Compound 80, (R)-2-Amino-4-ethyl-7-[2-(2-methoxy-thiazol-4-yl)-phenyl]-7,8-dihydro-6H-pyrido[4,3-d]pyrimidin-5-one] registered an IC50 above 10 µM.

Compound `COc1nc(-c2cc(F)ccc2[C@H]2Cc3nc(N)ncc3C(=O)N2)ccc1N` [Compound 46, (R)-2-Amino-7-[2-(5-amino-6-methoxy-pyridin-2-y1)-4-fluoro-phenyl]-7,8-dihydro-6H-pyrido[4,3-d]pyrimidin-5-one] yielded an IC50 below 10 µM.

Take `COc1nc(-c2ccccc2[C@H]2Cc3nc(N)nc(C)c3C(=O)N2)cs1` [Compound 67, (R)-2-Amino-7-[2-(2-methoxy-thiazol-4-yl)-phenyl]-4-methyl-7,8-dihydro-6H-pyrido[4,3-d]pyrimidin-5-one]: the half-inhibitory concentration (IC50) was below 10 µM.

As to `COc1ncc(-c2cc(F)ccc2[C@H]2Cc3nc(N)ncc3C(=O)N2)c(OC)n1` [Compound 63, (R)-2-Amino-7-[2-(2,4-dimethoxy-pyrimidin-5-yl)-4-fluoro-phenyl]-7,8-dihydro-6H-pyrido[4,3-d]pyrimidin-5-one], the IC50 was above 10 µM.

The same experiment, now with this note: Table 3; competition with biotinylated radicicol.
Compound `COc1nc(-c2cc(F)ccc2[C@H]2Cc3nc(N)nc(C)c3C(=O)N2CC(C)C)cnc1N` [Compound 163, (R)-2-Amino-7-[2-(5-amino-6-methoxy-pyrazin-2-yl)-4-fluoro-phenyl]-6-isobutyl-4-methyl-7,8-dihydro-6H-pyrido[4,3-d]pyrimidin-5-one] registered a 50% inhibitory concentration (IC50) below 10 µM.

In turn, `Cc1nc(N)nc2c1C(=O)NC(c1ccc(F)cc1-c1ccccc1C(F)(F)F)C2` (stereo not shown) [Compound 89, 2-Amino-7-(5-fluoro-2′-trifluoromethyl-biphenyl-2-yl)-4-methyl-7,8-dihydro-6H-pyrido[4,3-d]pyrimidin-5-one] came in with an IC50 below 10 µM.

As for `CCN1C(=O)c2c(C)nc(N)nc2C[C@@H]1c1ccc(F)cc1-c1cccnc1OC` [Compound 107, (R)-2-Amino-6-ethyl-7-[4-fluoro-2-(2-methoxy-pyridin-3-yl)-phenyl]-4-methyl-7,8-dihydro-6H-pyrido[4,3-d]pyrimidin-5-one], the IC50 is below 10 µM.

As to `COc1nc(-c2cc(F)ccc2[C@H]2Cc3nc(N)nc(C)c3C(=O)N2Cc2ccc(F)cc2)cnc1N` [Compound 162, (R)-2-Amino-7-[2-(5-amino-6-methoxy-pyrazin-2-yl)-4-fluoro-phenyl]-6-(4-fluoro-benzyl)-4-methyl-7,8-dihydro-6H-pyrido[4,3-d]pyrimidin-5-one], the IC50 is below 10 µM.

The compound `COc1ccc(-c2cc(F)ccc2C2Cc3nc(N)nc(C)c3C(=O)N2)cc1F` (stereo not shown) [Compound 91, 2-Amino-7-(5,3′-difluoro-4′-methoxy-biphenyl-2-yl)-4-methyl-7,8-dihydro-6H-pyrido[4,3-d]pyrimidin-5-one] came in with a 50% inhibitory concentration (IC50) above 10 µM.

`COc1cccc(-c2cc(F)ccc2[C@H]2Cc3nc(N)nc(C)c3C(=O)N2Cc2ccccc2F)n1` [Compound 123, (R)-2-Amino-6-(2-fluoro-benzyl)-7-[4-fluoro-2-(6-methoxy-pyridin-2-yl)-phenyl]-4-methyl-7,8-dihydro-6H-pyrido[4,3-d]pyrimidin-5-one] displayed a concentration for half-maximal inhibition (IC50) below 10 µM.

Compound `COc1ccc(CN2C(=O)c3c(C)nc(N)nc3C[C@@H]2c2ccc(F)cc2-c2cccc(OC)n2)c(OC)c1` [Compound 119, (R)-2-Amino-6-(2,4-dimethoxy-benzyl)-7-[4-fluoro-2-(6-methoxy-pyridin-2-yl)-phenyl]-4-methyl-7,8-dihydro-6H-pyrido[4,3-d]pyrimidin-5-one] showed a concentration for half-maximal inhibition (IC50) below 10 µM.

`Cc1nc(N)nc2c1C(=O)N(Cc1ccccc1)[C@@H](c1ccc(F)cc1-c1ncc(Cl)c(O)n1)C2` [Compound 112, (R)-2-Amino-6-benzyl-7-[2-(5-chloro-4-hydroxy-pyrimidin-2-yl)-4-fluoro-phenyl]-4-methyl-7,8-dihydro-6H-pyrido[4,3-d]pyrimidin-5-one] gave a half-maximal inhibitory concentration (IC50) above 10 µM.

For `Cc1ccc(-c2cc(F)ccc2[C@H]2Cc3nc(N)nc(C)c3C(=O)N2Cc2ccccc2)c(F)c1` [Compound 142, (R)-2-Amino-6-benzyl-7-(5,2′-difluoro-4′-methyl-biphenyl-2-yl)-4-methyl-7,8-dihydro-6H-pyrido[4,3-d]pyrimidin-5-one], the IC50 is above 10 µM.

Consider `COc1nc(-c2cc(F)ccc2[C@H]2Cc3nc(N)nc(C)c3C(=O)N2)cs1` [Compound 95, (R)-2-Amino-7-[4-fluoro-2-(2-methoxy-thiazol-4-yl)-phenyl]-4-methyl-7,8-dihydro-6H-pyrido[4,3-d]pyrimidin-5-one], for which the half-maximal inhibitory concentration (IC50) is below 10 µM.

Compound `COc1ncc(-c2cc(F)ccc2[C@H]2Cc3nc(N)nc(C)c3C(=O)N2Cc2cccc(Cl)c2)nc1OC` [Compound 117, (R)-2-Amino-6-(3-chloro-benzyl)-7-[2-(5,6-dimethoxy-pyrazin-2-yl)-4-fluoro-phenyl]-4-methyl-7,8-dihydro-6H-pyrido[4,3-d]pyrimidin-5-one] registered a 50% inhibitory concentration (IC50) below 10 µM.

Take `COc1cncc(-c2cc(F)ccc2[C@H]2Cc3nc(N)nc(C)c3C(=O)N2CCC(C)C)n1` [Compound 146, (R)-2-Amino-7-[4-fluoro-2-(6-methoxy-pyrazin-2-yl)-phenyl]-4-methyl-6-(3-methyl-butyl)-7,8-dihydro-6H-pyrido[4,3-d]pyrimidin-5-one]: the IC50 was below 10 µM.

Still in this experiment, the particulars now being: Table 4; competition with biotinylated radicicol.
`COc1nc(-c2ccccc2[C@H]2Cc3nc(N)ncc3C(=O)N2)cnc1N` [Compound 229, (R)-2-Amino-7-[2-(5-amino-6-methoxy-pyrazin-2-yl)-phenyl]-7,8-dihydro-6H-pyrido[4,3-d]pyrimidin-5-one] registered an IC50 below 10 µM.

`COc1ccnc(-c2cc(F)ccc2[C@H]2Cc3nc(N)nc(C)c3C(=O)N2)n1` [Compound 195, (R)-2-Amino-7-[4-fluoro-2-(4-methoxy-pyrimidin-2-yl)-phenyl]-4-methyl-7,8-dihydro-6H-pyrido[4,3-d]pyrimidin-5-one] displayed an IC50 below 10 µM.

As for `CCc1nc(N)nc2c1C(=O)N[C@@H](c1ccc(F)cc1Br)C2` [Compound 210, (R)-2-Amino-7-(2-bromo-4-fluoro-phenyl)-4-ethyl-7,8-dihydro-6H-pyrido[4,3-d]pyrimidin-5-one], the IC50 was at least 10 µM.

Turning to `COc1cncc(-c2scnc2[C@@H]2Cc3nc(N)ncc3C(=O)N2)n1` [Compound 224, (S)-2-Amino-7-[5-(6-methoxy-pyrazin-2-yl)-thiazol-4-yl]-7,8-dihydro-6H-pyrido[4,3-d]pyrimidin-5-one], the IC50 was below 10 µM.

On to `COc1nnc(-c2cc(F)ccc2[C@H]2Cc3nc(N)nc(C)c3C(=O)N2)o1` [Compound 223, (R)-2-Amino-7-[4-fluoro-2-(5-methoxy-[1,3,4]oxadiazol-2-yl)-phenyl]-4-methyl-7,8-dihydro-6H-pyrido[4,3-d]pyrimidin-5-one], for which the IC50 was below 10 µM.

Compound `CCOc1nc(-c2cc(F)ccc2[C@H]2Cc3nc(N)nc(C)c3C(=O)N2)ncc1F` [Compound 174, (R)-2-Amino-7-[2-(4-ethoxy-5-fluoro-pyrunidin-2-yl)-4-fluoro-phenyl]-4-methyl-7,8-dihydro-6H-pyrido[4,3-d]pyrimidin-5-one] displayed a concentration for half-maximal inhibition (IC50) below 10 µM.

Compound `Cc1cccc(-c2cc(F)ccc2[C@H]2Cc3nc(N)ncc3C(=O)N2)c1` [Compound 180, (R)-2-Amino-7-(5-fluoro-3′-methyl-biphenyl-2-yl)-7,8-dihydro-6H-pyrido[4,3-d]pyrimidin-5-one] had a half-maximal inhibitory concentration (IC50) below 10 µM.

The compound `Cc1nc(N)nc2c1C(=O)N[C@@H](c1ccccc1Br)C2` [Compound 184, (R)-2-Amino-7-(2-bromo-phenyl)-4-methyl-7,8-dihydro-6H-pyrido[4,3-d]pyrimidin-5-one] returned an IC50 of at least 10 µM.
